Values joined by “and” are separate entries in the source; they are usually repeats but may differ in a detail not shown here. Identical values can stand only once.
Experiments:
[1] = target: T1, bovine aortic sarcolemma membrane vesicles ([^125 I]ChTX binding) (Bos taurus, UniProt Q28204); test: [^125 I]ChTX (Charybdotoxin) binding to bovine aortic sarcolemma membrane vesicles
T1 construct: bovine aortic sarcolemma membrane vesicles; from tissue; host or cells: bovine aorta (smooth muscle) sarcolemma membrane vesicles
Description: The interaction of [^125 I]ChTX (Charybdotoxin) with bovine aortic sarcolemma membrane vesicles was determined under conditions as described in Vazquez et al., 1989, J. Biol. Chem. 264, 20902-20909. Briefly, sarcolemma membrane vesicles were incubated in 12×75 polystyrene robes with ca. 25 pM [^125 I]ChTX (2200 Ci/mmol), in the absence or presence of test compound, in a media consisting of 20 mM NaCl, 20 mM Tris-HCl pH 7.4, 0.1% bovine serum albumin, 0.1% digitonin. Nonspecific binding was determined in the presence of 10 nM ChTX. Incubations were carried out at room temperature until ligand binding equilibrium is achieved at ca. 90 min. At the end of the incubation period, samples were diluted with 4 mL ice-cold 100 mM NaCl, 20 mM Hepes-Tris pH 7.4 and filtered through GF/C glass fiber filters that have been presoaked in 0.5% polyethylenimine. Filters were rinsed twice with 4 mL ice-cold quench solution. Radioactivity associated with filters was determined in a gamma counter. Specific binding data in the presence of each compound (difference between total binding and nonspecific binding) was assessed relative to an untreated control.

[2] = target: large-conductance calcium-activated potassium (maxi-K) channels (Bos taurus, UniProt Q28204); test: Patch clamp recordings of maxi-K channel currents in excised inside-out membrane patches from cultured bovine aortic smooth muscle cells; format: biochemical; settings: 10 μM
Description: Pipettes were typically filled with solutions containing (mM): 150 KCl, 10 Hepes (4-(2-hydroxyethyl)-1-piperazineethanesulfonic acid), 1 Mg, 0.01 Ca, and adjusted to pH 7.20 with 3.7 mM KOH. After forming a high resistance (>10^9 ohms) seal between the sarcolemmal membrane and the pipette, the pipette was withdrawn from the cell forming an excised inside-out membrane patch. […] An Axopatch 1C amplifier (Axon Instruments, Foster City, Calif.) with a CV-4 headstage was used to control the voltage and to measure the currents flowing across the membrane patch. The input to the headstage was connected to the pipette solution with a Ag/AgCl wire, and the amplifier ground was connected to the bath solution with a Ag/AgCl wire covered with a robe filled with agar dissolved in 0.2M KCl. Maxi-K channels were identified by their large single channel conductance (~250 pS) and sensitivity of channel open probability to membrane potential and intracellular calcium concentration.
Data was stored on a RACAL STORE 4DS FM tape recorder (Racal Recorders, Vienna, Va.) or on digital video tape using a video casette recorder after digitizing the signal with VR-10 (Instrutech Corp., Belmont N.Y.) PCM video encoder. The signal was also recorded on chart paper with a GOULD 2400S chart recorder (Gould Inc., Cleveland Ohio). For quantitative analysis, the data was played into a DEC 11-73 (Digital Equipment Corp., Maynard, Mass.) after digitization with a DT2782-8D1A analogue to digital converter (Data Translation Inc., Marlboro, Mass.), or played into a MAC IIx or QUADRA 700 computer (Apple Computers) after digitization with an ITC-16 interface (Instrutech Corp., Belmont, N.Y.).

maxi-K channels = test: Maxi-K channel recordings in planar lipid bilayers with plasma membrane vesicles from bovine aortic smooth muscle; format: biochemical; settings: 10 μM, lipid bilayer
Description: Planar lipid bilayers were formed from a solution of 1-palmitoyl-2-oleoylphosphatidylethanolamine (POPE) and 1-palmitoyloleoylphosphatidylcholine (POPC) in a 7/3 molar ratio dissolved in decane (50 mg/mL). This lipid solution was painted across a small hole (250 micron) separating two aqueous compartments and readily formed bilayers with capacitances of 200-250 pF. The solution on the side that the membranes were added (cis) contained (mM): 150 KCl, 10 Hepes, 0.01 Ca, 3.7 KOH, pH 7.20. The solution on the other side (trans) contained (mM): 25 KCl, 10 HEPES, 0.01 Ca, 3.7 KOH, pH 7.20. Plasma membrane vesicles purified from bovine aortic smooth muscle (Slaughter et al. 1989, Biochemistry 28, 3995-4002) were added to the cis side until channel incorporation occurred. After channel incorporation, the concentration of KCl on the trans side was increased to 150 mM to prevent further channel incorporation. The orientation of maxi-K channels after insertion into the bilayer was determined from the calcium and voltage sensitivity of the channel. […]
Data was stored on a RACAL STORE 4DS FM tape recorder (Racal Recorders, Vienna, Va.) or on digital video tape using a video casette recorder after digitizing the signal with VR-10 (Instrutech Corp., Belmont N.Y.) PCM video encoder. The signal was also recorded on chart paper with a GOULD 2400S chart recorder (Gould Inc., Cleveland Ohio). […]

[3] = application to the intracellular side, excised inside-out patch
[4] = excised inside-out patch, result in words

T1 sequence (Q28204 whole entry): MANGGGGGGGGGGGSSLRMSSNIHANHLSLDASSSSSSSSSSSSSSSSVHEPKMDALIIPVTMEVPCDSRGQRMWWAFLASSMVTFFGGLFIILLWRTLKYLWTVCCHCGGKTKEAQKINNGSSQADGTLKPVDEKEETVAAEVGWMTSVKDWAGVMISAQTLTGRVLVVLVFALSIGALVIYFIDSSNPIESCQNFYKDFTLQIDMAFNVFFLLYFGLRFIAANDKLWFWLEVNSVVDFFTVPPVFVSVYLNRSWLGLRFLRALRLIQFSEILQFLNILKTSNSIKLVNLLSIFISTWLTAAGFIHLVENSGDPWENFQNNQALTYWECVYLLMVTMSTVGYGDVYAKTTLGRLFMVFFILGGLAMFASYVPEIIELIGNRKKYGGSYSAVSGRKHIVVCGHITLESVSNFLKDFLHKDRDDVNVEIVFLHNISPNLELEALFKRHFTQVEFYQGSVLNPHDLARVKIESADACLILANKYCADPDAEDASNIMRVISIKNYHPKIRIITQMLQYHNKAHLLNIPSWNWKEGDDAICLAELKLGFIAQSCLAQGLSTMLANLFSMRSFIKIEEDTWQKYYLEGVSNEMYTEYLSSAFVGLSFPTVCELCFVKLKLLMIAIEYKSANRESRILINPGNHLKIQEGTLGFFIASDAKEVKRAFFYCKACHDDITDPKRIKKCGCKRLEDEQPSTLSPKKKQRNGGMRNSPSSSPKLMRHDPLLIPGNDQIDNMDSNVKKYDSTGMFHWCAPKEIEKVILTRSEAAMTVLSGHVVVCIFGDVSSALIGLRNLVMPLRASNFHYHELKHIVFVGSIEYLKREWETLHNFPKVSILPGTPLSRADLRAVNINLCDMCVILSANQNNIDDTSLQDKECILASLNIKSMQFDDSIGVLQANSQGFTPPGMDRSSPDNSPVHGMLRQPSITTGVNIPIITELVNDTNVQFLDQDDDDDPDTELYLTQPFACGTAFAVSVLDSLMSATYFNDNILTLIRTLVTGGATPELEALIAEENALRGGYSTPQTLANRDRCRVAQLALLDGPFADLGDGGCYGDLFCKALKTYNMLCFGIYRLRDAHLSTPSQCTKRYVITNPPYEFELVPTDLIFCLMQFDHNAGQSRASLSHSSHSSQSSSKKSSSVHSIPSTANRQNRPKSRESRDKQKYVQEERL
large-conductance calcium-activated potassium (maxi-K) channels, sequence (Q28204 whole entry): as above
large-conductance calcium-activated potassium (maxi-K) channels, sequence (Q28067 whole entry partner): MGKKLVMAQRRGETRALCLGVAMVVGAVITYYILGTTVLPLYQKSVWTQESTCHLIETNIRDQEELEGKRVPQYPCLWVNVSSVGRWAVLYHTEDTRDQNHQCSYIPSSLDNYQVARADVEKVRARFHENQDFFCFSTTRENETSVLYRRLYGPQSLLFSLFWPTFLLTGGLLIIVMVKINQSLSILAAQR

SMILES | effect on channel open probability [2, 3] | IC50 [1] | inhibition of [^125 I]ChTX binding ([1]; result in words) | effect on channel open probability [2, 4] | other results
CCCCC/C=C\C/C=C\CCCCCCCC(=O)O[C@H]1C[C@]2(C)CC=C(C)CC[C@H]2[C@]1(O)C(C)C [Compound C] | small decreases in channel open probability |  |  |  | effect on [^125 I]ChTX binding ([1]; concentrations up to 100 μM, tested at 1, 10 and 100 μM): no effect on binding
CC(C)[C@@]1(O)[C@@H]2CCC(CO)=CC[C@@]2(C)C[C@@H]1O [Compound E] | no observable effect on channel open probability |  |  |  | effect on toxin binding ([1]; concentrations from 1 nM to 100 μM): did not produce any significant effect on toxin binding
CCCCCCCC/C=C\CCCCCCCC(=O)O[C@H]1C[C@]2(C)CC=C(C)CC[C@H]2[C@]1(O)C(C)C [Compound D] | small decreases in channel open probability |  |  |  | remaining activity at 100 µM ([1]; 1.5 h, pH 7.4, read-out: [^125 I]ChTX binding, % of that under control conditions): 37%; inhibition of [^125 I]ChTX binding ([1]; at 100 μM, tested at 1, 10 and 100 μM): significant inhibition of binding
CCCCCCCC/C=C\CCCCCCCC(=O)OCC1=CC[C@@]2(C)C[C@H](O)[C@@](O)(C(C)C)[C@@H]2CC1 [Compound A] |  | 360 nM and ~360 nM | concentration-dependent inhibition | clear increases in channel open probability | time over which increase in channel open probability developed ([2]; excised inside-out patch): 5 to 10 min; reversal of increase in channel open probability on washout ([2]; long (20-60 minutes) washout): slowly reversed after long (20-60 minutes) washout; increase in channel open probability (maxi-K channels; inside face of the channel): 1.4 fold; effect on channel open probability (maxi-K channels; outside face of the channel): did not increase channel open probability
CC1=CC[C@@]2(C)C[C@H](O)[C@@](O)(C(C)C)[C@@H]2CC1 [Compound B, reference compound] |  | 200 nM | concentration-dependent inhibition | no clear effect on channel open probability | 
